This test concerns Bovine aortic endothelial cells. The experiment in a line: Changes in thiol metabolism upon γ-glutamyl-cysteine synthetase inhibition (6-plex tagged LC-MS of cell lysates). It counts as cell-based. The settings on record: 250 μM BSO for 16 hours vs reduced-serum media control. The protocol:
Cell culture and lysis: Bovine aortic endothelial cells between passage number 7 and 10 were cultured to confluency in 6 cm plates with Dulbecco's modified eagle medium (DMEM) supplemented with 10% fetal bovine serum (FBS) at 37° C. and 5% CO2. Cell media was swapped with DMEM supplemented with 2% FBS and 250 μM BSO. Control plates were swapped to DMEM with 2% FBS. All plates were lysed after 16 hours as previously described (Filla, L. A., et al., Anal Bioanal Chem 2019, 411 (24), 6399-6407). Briefly, the media was removed and the cells were rapidly rinsed with 1 mL of phosphate-buffered saline. Cells were lysed with the addition of 500 μL of cold 80/20 MeOH/H2O containing 100 mM formic acid and 5 μM of D4 homocysteine as an internal standard. Plates were placed on a dry ice-ethanol bath and the cell contents were collected, then centrifuged at 21,100×g for three minutes. The supernatant was immediately collected and stored on dry ice until derivatization.
Thiol Derivatization: Thiol metabolite stocks were created as individual 500 μM vials with 50/50 H2O/MeOH containing 20 mM formic acid and stored at −20° C. to minimize degradation. Lower concentration stocks were produced by further dilution and derivatized immediately. For cell lysate reactions, 100 μL of the lysate was used for each reaction. Thiol metabolites were added to 100 μL of 100 mM ammonium bicarbonate pH 8. An isotopic iodide tag was then immediately added (100 μL, 100 μM) and left at room temperature to react for 16 hours to ensure a complete reaction. All iodide tags and reactions were handled in the dark to prevent degradation. After the reaction was completed, the samples were mixed with the other isotope variants, dried in a vacuum centrifuge, and reconstituted to 100 μL in the starting mobile phase conditions.
Liquid Chromatography: Fused silica capillary (Polymicro Technologies, Phoenix, AZ) was used to fabricate columns with an inner diameter of 50 μm as previously described (Edwards, J. L., et al, Journal of Chromatography A 2007, 1172 (2), 127-134). Briefly, 50 μm inner diameter capillary was cut to 25 cm, a photopolymerized frit placed 30 mm from the end, then a tip pulled with a Sutter P2000 micropipette puller and etched in 50% HF. The capillary bed was packed to 20 cm with Atlantis silica HILIC 3 μm particles (Waters Corp, Milford, MA). After equilibration the capillary was cut to 17.5 cm for analysis. Flow was delivered by a Thermo Vanquish LC (Thermo Fisher Scientific, Waltham, MA) connected to a stainless steel tee to split the flow. A 50 μm×100 cm open capillary was used as the split to direct 115 nL of the total flow and 4 nL injections to the capillary column (split ratio 1:1500 for bulk flow of 175 μL/min and injection of 6 μL). The split ratio was determined by calculating flow through the capillary based on the experimental dead time and column dimensions. Mobile phase A was pure acetonitrile and mobile phase B was 25 mM ammonium acetate in 80/20 (water/ACN) with 0.05% acetic acid as an additive. The gradient is supplied in Table 1 below.
MS Analysis: A Q-Exactive mass spectrometer (Thermo Fisher Scientific, Waltham, MA) was used for all analyses. An MS^1 survey scan operated at a resolution of 17.5K with an ion injection time of 50 ms and AGC of 1e^6 for m/z 250-650. […] These MS^2 scans operated at a resolution of 140K with an ion injection time of 200 ms, AGC of 1e^5, and the optimized collision energy determined for each analyte. […]

Structures are written as SMILES. “Also recorded” adds a separate entry of the source.

Turning to `CCCCS(=N)(=O)CCC(N)C(=O)O` (centres unmarked) [BSO, Buthionine sulfoximine], where the note is “n=3, FIG. 5B”, the GSH level change result is “Significant decreases; also recorded: glutathione depletion was observed” and the cysteinyl-glycine level change result is “Significant decreases”. Moreover, the Glutamyl-cysteine level change entry (n=3, near the limit of detection) is recorded as “did not change significantly”. For the same molecule, for the setting “n=3, trended upward”, the cysteine level change result is “did not change” and the homocysteine level change result is recorded as “did not change”.

For the origin of these results see patent US20240345094A1, “DOUBLE FRAGMENTATION ISOBARIC TAGGING” (Saint Louis University, priority 2023, published 2024).
